Reference: patent US20030215462A1, “Use of UGT inhibitors to increase bioavailability” (priority 2001, published 2003)
“And” between values parts separate entries of the source, which are not always exact repeats. Identical values can stand only once.

Tests used:
[1] = tested on: UGT enzymes of human liver microsomes; experiment: Inhibition of raloxifene glucuronidation (G1, G2) in human liver microsomes; assay type: biochemical; details: for % of control metabolism (SD, n = 3), raloxifene glucuronide G1 / % of control metabolism (SD, n = 3), raloxifene glucuronide G2: human liver microsomes 250 μg/ml, 15 min
Text: Compounds were eluted using a binary solvent gradient system. […] Solvent B was methanol. […] Detection was at 280 nm.

[2] = tested on: UGT enzymes of pooled human jejunum microsomes; experiment: Inhibition of 2ME2 glucuronidation (MG1) in pooled human jejunum microsomes; assay type: biochemical; details: jejunum HJ61, 2ME2 50 μM
Text: Compounds were eluted using a binary solvent gradient system where solvent A was dilute phosphoric acid (pH 3) and solvent B was 80:20 acetonitrile-methanol. […] Detection was at 280 nm.

UGT1A3 = biological target: T1, UGT1A3 (Homo sapiens, UniProt P35503); experiment: Inhibition of raloxifene glucuronidation by recombinant UGT1A3 Supersomes; details: for Inhibition of raloxifene glucuronidation, G1, UGT1A3 / Inhibition of raloxifene glucuronidation, G2, UGT1A3: raloxifene 50 μM, 250 μg/ml Supersomes, 1 mM UDPGA, 15 min
T1 sequence (P35503 29-534): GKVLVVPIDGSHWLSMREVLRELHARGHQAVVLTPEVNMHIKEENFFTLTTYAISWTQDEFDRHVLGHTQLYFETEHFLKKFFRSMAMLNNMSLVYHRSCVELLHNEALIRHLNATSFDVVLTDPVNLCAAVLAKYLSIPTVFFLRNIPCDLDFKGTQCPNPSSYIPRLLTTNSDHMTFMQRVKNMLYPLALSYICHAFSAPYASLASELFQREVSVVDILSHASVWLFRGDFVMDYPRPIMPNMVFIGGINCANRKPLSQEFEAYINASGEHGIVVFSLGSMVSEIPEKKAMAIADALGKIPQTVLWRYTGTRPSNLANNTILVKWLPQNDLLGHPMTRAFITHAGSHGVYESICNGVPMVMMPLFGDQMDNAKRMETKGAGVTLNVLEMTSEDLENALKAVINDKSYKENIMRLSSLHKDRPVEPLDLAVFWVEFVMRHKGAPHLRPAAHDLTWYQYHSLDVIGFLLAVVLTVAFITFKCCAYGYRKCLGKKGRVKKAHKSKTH
Method: (§1) Compounds were eluted using a binary solvent gradient system. Solvent A was water brought to pH 8 with NH4OH. Solvent B was methanol. Solvent flow rate was 1 ml/min and the column temperature was maintained at 50° C. Detection was at 280 nm. […] The system was then returned to the initial conditions and equilibrated for 3 min.

UGT1A9 = biological target: T2, UGT1A9 (Homo sapiens, UniProt O60656); experiment: Inhibition of raloxifene glucuronidation by recombinant UGT1A9 Supersomes; details: for Inhibition of raloxifene glucuronidation, UGT1A9, first line per inhibitor (G1): first line (G1, metabolite not given); for Inhibition of raloxifene glucuronidation, UGT1A9, first line per inhibitor (G1) / Inhibition of raloxifene glucuronidation, UGT1A9, second line per inhibitor (G2): raloxifene 50 μM, 250 μg/ml Supersomes, 1 mM UDPGA, 15 min; for Inhibition of raloxifene glucuronidation, UGT1A9, second line per inhibitor (G2): second line (G2, metabolite not given)
T2 sequence (O60656 26-530): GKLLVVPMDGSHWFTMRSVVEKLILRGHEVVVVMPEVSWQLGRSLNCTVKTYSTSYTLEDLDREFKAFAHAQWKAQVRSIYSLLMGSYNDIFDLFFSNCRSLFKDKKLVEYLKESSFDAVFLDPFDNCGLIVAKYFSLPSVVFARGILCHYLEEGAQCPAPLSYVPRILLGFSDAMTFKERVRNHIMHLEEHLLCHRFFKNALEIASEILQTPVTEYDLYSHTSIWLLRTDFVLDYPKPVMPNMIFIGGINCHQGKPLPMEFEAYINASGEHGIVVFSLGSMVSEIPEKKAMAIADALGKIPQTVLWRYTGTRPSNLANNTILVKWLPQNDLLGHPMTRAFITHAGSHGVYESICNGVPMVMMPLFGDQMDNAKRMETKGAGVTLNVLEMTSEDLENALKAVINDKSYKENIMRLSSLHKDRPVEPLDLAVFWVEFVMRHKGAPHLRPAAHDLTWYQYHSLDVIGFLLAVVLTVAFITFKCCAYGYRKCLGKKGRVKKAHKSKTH

UGT1A10 = biological target: T3, UGT1A10 (Homo sapiens, UniProt Q9HAW8); experiment: Inhibition of raloxifene glucuronidation by recombinant UGT1A10 Bacculosomes; details: UGT1A10
T3 sequence (Q9HAW8 26-530): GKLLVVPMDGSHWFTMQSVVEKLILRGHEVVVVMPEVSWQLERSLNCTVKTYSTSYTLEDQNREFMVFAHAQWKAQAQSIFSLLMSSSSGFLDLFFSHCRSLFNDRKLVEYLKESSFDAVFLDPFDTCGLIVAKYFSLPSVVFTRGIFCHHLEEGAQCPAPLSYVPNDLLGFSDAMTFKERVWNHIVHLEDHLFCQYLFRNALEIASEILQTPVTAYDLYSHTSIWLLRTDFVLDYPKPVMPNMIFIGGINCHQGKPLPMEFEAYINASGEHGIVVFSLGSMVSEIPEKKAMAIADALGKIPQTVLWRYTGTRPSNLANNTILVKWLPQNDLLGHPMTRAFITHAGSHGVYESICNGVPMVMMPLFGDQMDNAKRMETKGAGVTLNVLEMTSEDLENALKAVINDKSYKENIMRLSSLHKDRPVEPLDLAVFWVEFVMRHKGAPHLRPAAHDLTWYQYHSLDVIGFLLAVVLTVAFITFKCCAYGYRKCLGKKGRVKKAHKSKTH
Method: as §1

[3] = inhibitor 10 μM, raloxifene 50 μM
[4] = inhibitor 25 μM, raloxifene 50 μM
[5] = inhibitor 50 μM, raloxifene 50 μM
[6] = inhibitor 100 μM, raloxifene 50 μM
[7] = inhibitor 500 μM, raloxifene 50 μM
[8] = liver lot 032101, inhibitor 50 μM
[9] = liver lot 062101, inhibitor 50 μM
[10] = liver lot 083000, inhibitor 50 μM
[11] = raloxifene 50 μM, inhibitor 10 μM
[12] = raloxifene 50 μM, inhibitor 25 μM
[13] = raloxifene 50 μM, inhibitor 50 μM
[14] = raloxifene 50 μM, inhibitor 100 μM

SMILES: O=C(O[C@@H]1Cc2c(O)cc(O)cc2O[C@@H]1c1cc(O)c(O)c(O)c1)c1cc(O)c(O)c(O)c1 [Epigallocatechin gallate]
- % of control metabolism (SD, n = 3), raloxifene glucuronide G1 [1, 3]: 85 (3) %
- % of control metabolism (SD, n = 3), raloxifene glucuronide G1 [1, 4]: 56 (1) %
- % of control metabolism (SD, n = 3), raloxifene glucuronide G1 [1, 5]: 46 (2) %
- % of control metabolism (SD, n = 3), raloxifene glucuronide G1 [1, 6]: 22 (1) %
- % of control metabolism (SD, n = 3), raloxifene glucuronide G1 [1, 7]: 0 (0) %
- % of control metabolism (SD, n = 3), raloxifene glucuronide G2 [1, 3]: 82 (3) %
- % of control metabolism (SD, n = 3), raloxifene glucuronide G2 [1, 4]: 63 (1) %
- % of control metabolism (SD, n = 3), raloxifene glucuronide G2 [1, 5]: 50 (3) %
- % of control metabolism (SD, n = 3), raloxifene glucuronide G2 [1, 6]: 27 (2) %
- % of control metabolism (SD, n = 3), raloxifene glucuronide G2 [1, 7]: 0 (0) %
- % of control metabolism, raloxifene G1 [1, 8]: 54 (2) %
- % of control metabolism, raloxifene G2 [1, 8]: 50 (2) %
- % of control metabolism, raloxifene G1 [1, 9]: 68 (2) %
- % of control metabolism, raloxifene G2 [1, 9]: 41 (2) %
- % of control metabolism, raloxifene G1 [1, 10]: 46 (2) %
- % of control metabolism, raloxifene G2 [1, 10]: 50 (3) %
- % of control metabolism, raloxifene G1 [1, 11]: 85 (3) %
- % of control metabolism, raloxifene G2 [1, 11]: 82 (3) %
- % of control metabolism, raloxifene G1 [1, 12]: 56 (1) %
- % of control metabolism, raloxifene G2 [1, 12]: 63 (1) %
- % of control metabolism, raloxifene G1 [1, 13]: 46 (2) %
- % of control metabolism, raloxifene G2 [1, 13]: 50 (3) %
- % of control metabolism, raloxifene G1 [1, 14]: 22 (1) %
- % of control metabolism, raloxifene G2 [1, 14]: 27 (2) %
- residual metabolism (% of control), 2ME2 MG1 ([2]; inhibitor 25 μM): 66 (2) %
- residual metabolism (% of control), 2ME2 MG1 ([2]; inhibitor 50 μM): 50 (3) %
- residual metabolism (% of control), 2ME2 MG1 ([2]; inhibitor 100 μM): 35 (2) %
- Inhibition of raloxifene glucuronidation, G1, UGT1A3 (UGT1A3; inhibitor 25 μM): 69 (2)
- Inhibition of raloxifene glucuronidation, G1, UGT1A3 (UGT1A3; inhibitor 50 μM): 26 (2)
- Inhibition of raloxifene glucuronidation, G2, UGT1A3 (UGT1A3; inhibitor 25 μM): 64 (3)
- Inhibition of raloxifene glucuronidation, G2, UGT1A3 (UGT1A3; inhibitor 50 μM): 25 (1)
- % of control metabolism, raloxifene G1 (UGT1A3; UGT1A3, inhibitor 25 μM): 69 (2) %
- % of control metabolism, raloxifene G2 (UGT1A3; UGT1A3, inhibitor 25 μM): 64 (3) %
- % of control metabolism, raloxifene G1 (UGT1A3; UGT1A3, inhibitor 50 μM): 26 (2) %
- % of control metabolism, raloxifene G2 (UGT1A3; UGT1A3, inhibitor 50 μM): 25 (1) %
- % of control metabolism, raloxifene G1 (UGT1A9; UGT1A9, inhibitor 25 μM): 58 (1) %
- % of control metabolism, raloxifene G2 (UGT1A9; UGT1A9, inhibitor 25 μM): 50 (1) %
- % of control metabolism, raloxifene G1 (UGT1A9; UGT1A9, inhibitor 50 μM): 33 (4) %
- % of control metabolism, raloxifene G2 (UGT1A9; UGT1A9, inhibitor 50 μM): 22 (2) %
- Inhibition of raloxifene glucuronidation, UGT1A9, first line per inhibitor (G1) (UGT1A9; inhibitor 25 μM): 58 (1)
- Inhibition of raloxifene glucuronidation, UGT1A9, first line per inhibitor (G1) (UGT1A9; inhibitor 50 μM): 33 (4)
- Inhibition of raloxifene glucuronidation, UGT1A9, second line per inhibitor (G2) (UGT1A9; inhibitor 25 μM): 50 (1)
- Inhibition of raloxifene glucuronidation, UGT1A9, second line per inhibitor (G2) (UGT1A9; inhibitor 50 μM): 22 (2)
- % of control metabolism, raloxifene G1 (UGT1A10; inhibitor 25 μM): 68 (1) %
- % of control metabolism, raloxifene G2 (UGT1A10; inhibitor 25 μM): 73 (1) %
- % of control metabolism, raloxifene G1 (UGT1A10; inhibitor 50 μM): 37 (2) %
- % of control metabolism, raloxifene G2 (UGT1A10; inhibitor 50 μM): 37 (1) %

SMILES: C=CCc1ccc(O)c(OC)c1 [Eugenol]
- % of control metabolism, raloxifene G1 ([1]; 50 µM): 39 (0), 41 (3) % and 65 (1), 63 (3) % and 69 (4), 53 (2) %
- % of control metabolism, raloxifene G2 ([1]; 50 µM): 39 (0), 41 (3) % and 65 (1), 63 (3) % and 69 (4), 53 (2) %
- residual metabolism (% of control), 2ME2 MG1 ([2]; inhibitor 100 μM): 104 (4) %
- inhibition of raloxifene glucuronidation, in words (UGT1A3; UGT1A3): ineffective
- inhibition of raloxifene glucuronidation, in words (UGT1A9; UGT1A9): amongst the best inhibitors
- inhibition of raloxifene glucuronidation, in words (UGT1A10): ineffective
